Our source for the Activity, Kd and IC50 values is ChEMBL document CHEMBL1921668, “Discovery of new aminopyrimidine-based phosphoinositide 3-kinase beta (PI3Kβ) inhibitors with selectivity over PI3Kα” (Bioorg Med Chem Lett, 2011).

For assay [1], the target named is T1, Phosphatidylinositol 4,5-bisphosphate 3-kinase catalytic subunit beta isoform (Homo sapiens, UniProt P42338). Kind of assay: Inhibition of PI3Kbeta assessed as enzyme activity at 10 uM relative to control. Details: scale not given: the % may be the effect or the level left.
Target sequence in this assay (P42338 whole entry, looked up, canonical isoform): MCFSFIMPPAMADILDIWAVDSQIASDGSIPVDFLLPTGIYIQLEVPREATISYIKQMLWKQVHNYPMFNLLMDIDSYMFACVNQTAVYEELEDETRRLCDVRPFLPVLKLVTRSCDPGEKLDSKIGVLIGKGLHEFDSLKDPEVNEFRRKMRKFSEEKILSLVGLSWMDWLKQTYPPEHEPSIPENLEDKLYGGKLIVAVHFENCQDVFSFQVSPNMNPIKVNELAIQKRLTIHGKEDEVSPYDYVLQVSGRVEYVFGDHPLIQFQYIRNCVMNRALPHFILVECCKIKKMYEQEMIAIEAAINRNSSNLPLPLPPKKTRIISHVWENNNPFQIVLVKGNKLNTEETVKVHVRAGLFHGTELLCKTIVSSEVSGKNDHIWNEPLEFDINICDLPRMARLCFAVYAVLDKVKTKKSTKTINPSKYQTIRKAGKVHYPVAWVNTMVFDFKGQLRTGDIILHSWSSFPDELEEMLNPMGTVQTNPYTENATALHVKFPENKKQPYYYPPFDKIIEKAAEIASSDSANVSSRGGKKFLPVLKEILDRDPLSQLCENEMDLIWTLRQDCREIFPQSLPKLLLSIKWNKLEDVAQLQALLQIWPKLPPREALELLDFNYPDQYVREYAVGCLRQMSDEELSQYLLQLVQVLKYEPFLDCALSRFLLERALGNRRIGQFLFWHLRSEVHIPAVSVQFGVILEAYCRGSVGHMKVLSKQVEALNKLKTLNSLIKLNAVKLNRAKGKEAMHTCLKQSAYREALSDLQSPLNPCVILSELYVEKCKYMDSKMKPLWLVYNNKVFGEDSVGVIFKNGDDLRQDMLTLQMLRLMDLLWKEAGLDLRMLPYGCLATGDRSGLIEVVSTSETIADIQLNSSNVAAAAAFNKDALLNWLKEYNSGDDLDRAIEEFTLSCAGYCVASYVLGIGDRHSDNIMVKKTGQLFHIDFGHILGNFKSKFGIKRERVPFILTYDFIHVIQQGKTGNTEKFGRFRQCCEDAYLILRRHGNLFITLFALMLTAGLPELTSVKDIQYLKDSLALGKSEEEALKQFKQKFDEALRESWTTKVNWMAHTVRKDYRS
Assay [2] has as its target T2, Phosphatidylinositol 4,5-bisphosphate 3-kinase catalytic subunit alpha isoform (Homo sapiens, UniProt P42336). Kind of assay: Inhibition of PI3Kalpha assessed as enzyme activity at 10 uM relative to control. The arrangement: scale not given: the % may be the effect or the level left.
The target in assay [3] is T1, Phosphatidylinositol 4,5-bisphosphate 3-kinase catalytic subunit beta isoform. The experiment in a line: Binding affinity to PI3Kbeta.
Target sequence in this assay (P42338 whole entry, canonical isoform): as the sequence (P42338 whole entry, looked up, canonical isoform) above
Assay [4] deals with Phosphatidylinositol 4,5-bisphosphate 3-kinase catalytic subunit gamma isoform (Homo sapiens) (UniProt P48736). Kind of assay: Inhibition of PI3Kgamma assessed as enzyme activity relative to control. Details: scale not given: the % may be the effect or the level left.
Assay [5] concerns the target T3, Phosphatidylinositol 4,5-bisphosphate 3-kinase catalytic subunit delta isoform (Homo sapiens) (UniProt O00329).
T3 sequence (whole entry): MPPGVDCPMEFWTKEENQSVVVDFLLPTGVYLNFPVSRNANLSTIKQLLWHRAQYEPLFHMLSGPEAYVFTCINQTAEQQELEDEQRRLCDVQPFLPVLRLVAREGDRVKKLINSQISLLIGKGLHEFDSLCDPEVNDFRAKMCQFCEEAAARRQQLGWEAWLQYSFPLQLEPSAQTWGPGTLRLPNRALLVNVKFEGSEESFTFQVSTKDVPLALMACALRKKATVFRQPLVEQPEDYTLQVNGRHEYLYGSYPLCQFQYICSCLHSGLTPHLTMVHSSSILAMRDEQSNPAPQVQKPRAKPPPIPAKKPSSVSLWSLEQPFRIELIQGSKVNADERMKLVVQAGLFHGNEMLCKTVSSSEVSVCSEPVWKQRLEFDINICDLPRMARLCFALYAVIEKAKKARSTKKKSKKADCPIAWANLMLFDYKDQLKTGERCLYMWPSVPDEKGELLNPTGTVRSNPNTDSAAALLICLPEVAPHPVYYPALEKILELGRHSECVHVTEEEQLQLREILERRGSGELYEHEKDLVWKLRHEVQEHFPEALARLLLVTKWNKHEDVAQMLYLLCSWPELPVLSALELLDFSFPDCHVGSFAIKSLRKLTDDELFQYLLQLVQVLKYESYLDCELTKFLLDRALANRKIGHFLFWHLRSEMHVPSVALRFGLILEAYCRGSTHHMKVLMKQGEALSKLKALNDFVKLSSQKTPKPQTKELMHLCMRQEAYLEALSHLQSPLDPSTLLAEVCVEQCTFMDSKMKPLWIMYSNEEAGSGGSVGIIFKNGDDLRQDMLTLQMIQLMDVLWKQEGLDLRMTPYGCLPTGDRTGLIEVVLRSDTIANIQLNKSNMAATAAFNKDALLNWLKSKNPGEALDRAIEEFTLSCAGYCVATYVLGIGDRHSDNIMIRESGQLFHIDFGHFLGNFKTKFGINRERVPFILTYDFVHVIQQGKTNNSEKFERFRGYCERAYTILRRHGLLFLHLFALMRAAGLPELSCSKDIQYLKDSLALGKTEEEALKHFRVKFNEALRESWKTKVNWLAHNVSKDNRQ
Kind of assay: Inhibition of PI3Kdelta assessed as enzyme activity relative to control. Details: concentration or dose not given beside the values.

The target of assay [6] is Serine/threonine-protein kinase mTOR (Homo sapiens) (UniProt P42345). The experiment in a line: Inhibition of mTOR assessed as enzyme activity relative to control. Details: concentration or dose not given beside the values.
Assay [7] addresses T2, Phosphatidylinositol 4,5-bisphosphate 3-kinase catalytic subunit alpha isoform. The experiment in a line: Binding affinity to PI3Kalpha.
Assay [8] has as its system T47D. The experiment in a line: Antiproliferative activity against human T47D cells by MTT assay. The class given is functional, cell-based. Background: Tetrazolium assays rely on reduction of a dye to a coloured formazan, in cell work by metabolically active cells.

T2 sequence (P42336 whole entry, canonical isoform): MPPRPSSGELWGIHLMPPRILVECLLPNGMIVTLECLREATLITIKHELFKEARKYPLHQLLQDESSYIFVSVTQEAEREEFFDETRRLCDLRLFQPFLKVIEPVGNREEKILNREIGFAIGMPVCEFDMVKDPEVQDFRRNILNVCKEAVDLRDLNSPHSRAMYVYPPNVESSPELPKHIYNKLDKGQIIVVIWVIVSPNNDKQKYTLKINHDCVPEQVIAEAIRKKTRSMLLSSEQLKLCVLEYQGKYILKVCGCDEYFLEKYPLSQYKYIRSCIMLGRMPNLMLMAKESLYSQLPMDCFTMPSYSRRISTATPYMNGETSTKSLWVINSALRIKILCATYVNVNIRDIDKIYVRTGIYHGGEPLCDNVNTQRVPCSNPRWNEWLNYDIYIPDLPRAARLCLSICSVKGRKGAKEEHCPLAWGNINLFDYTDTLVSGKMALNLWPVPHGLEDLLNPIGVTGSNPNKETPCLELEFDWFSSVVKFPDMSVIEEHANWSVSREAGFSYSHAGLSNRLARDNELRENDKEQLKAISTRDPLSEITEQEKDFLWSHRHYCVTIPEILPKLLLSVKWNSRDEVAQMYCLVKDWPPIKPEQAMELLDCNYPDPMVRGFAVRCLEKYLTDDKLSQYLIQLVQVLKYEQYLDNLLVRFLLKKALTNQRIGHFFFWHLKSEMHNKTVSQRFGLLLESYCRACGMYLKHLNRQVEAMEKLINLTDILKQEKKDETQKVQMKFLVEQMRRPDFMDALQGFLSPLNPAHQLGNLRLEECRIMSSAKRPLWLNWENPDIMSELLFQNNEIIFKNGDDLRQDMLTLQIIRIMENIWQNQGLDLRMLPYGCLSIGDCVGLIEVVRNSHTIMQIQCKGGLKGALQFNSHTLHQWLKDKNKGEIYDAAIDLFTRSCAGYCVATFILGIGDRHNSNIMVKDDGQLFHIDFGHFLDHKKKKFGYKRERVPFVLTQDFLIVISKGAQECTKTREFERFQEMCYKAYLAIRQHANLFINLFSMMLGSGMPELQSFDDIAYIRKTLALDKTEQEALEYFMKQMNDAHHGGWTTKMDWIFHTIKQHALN
Chain of Phosphatidylinositol 4,5-bisphosphate 3-kinase catalytic subunit gamma isoform (Homo sapiens) (P48736 whole entry, looked up, canonical isoform): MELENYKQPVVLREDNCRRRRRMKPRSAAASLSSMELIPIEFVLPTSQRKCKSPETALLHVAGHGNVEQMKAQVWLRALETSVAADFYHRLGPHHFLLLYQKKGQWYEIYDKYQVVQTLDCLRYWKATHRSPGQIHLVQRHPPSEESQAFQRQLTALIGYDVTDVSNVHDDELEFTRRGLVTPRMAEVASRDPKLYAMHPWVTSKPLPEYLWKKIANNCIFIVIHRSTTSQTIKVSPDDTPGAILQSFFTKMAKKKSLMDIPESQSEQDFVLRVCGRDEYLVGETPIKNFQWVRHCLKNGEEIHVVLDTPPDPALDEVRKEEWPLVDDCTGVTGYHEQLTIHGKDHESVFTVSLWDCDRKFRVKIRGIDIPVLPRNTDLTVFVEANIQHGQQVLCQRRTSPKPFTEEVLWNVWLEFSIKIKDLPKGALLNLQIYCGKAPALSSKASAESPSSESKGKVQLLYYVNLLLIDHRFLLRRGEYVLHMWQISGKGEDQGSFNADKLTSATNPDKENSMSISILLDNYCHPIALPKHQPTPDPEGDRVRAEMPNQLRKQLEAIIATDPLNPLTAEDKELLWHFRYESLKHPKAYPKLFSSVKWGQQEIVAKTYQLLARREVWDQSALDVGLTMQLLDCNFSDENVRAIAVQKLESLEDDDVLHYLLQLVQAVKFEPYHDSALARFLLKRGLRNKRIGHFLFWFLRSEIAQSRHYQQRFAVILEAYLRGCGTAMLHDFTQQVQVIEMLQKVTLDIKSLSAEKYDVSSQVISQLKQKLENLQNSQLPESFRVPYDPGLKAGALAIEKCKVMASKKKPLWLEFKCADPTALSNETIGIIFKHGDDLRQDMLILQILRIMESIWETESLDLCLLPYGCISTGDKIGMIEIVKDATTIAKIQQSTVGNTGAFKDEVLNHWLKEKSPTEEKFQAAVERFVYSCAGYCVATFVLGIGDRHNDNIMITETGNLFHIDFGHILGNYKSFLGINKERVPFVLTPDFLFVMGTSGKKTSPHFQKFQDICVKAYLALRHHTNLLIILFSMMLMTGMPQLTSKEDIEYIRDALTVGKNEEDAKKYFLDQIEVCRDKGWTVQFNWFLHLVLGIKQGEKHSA

On to `Nc1cncc(-c2cnc(N)nc2)c1`, for which the Activity in assay [1] came out at 86%; in assay [2], 98%; in assay [4], 100%; in assay [5], 82%; in assay [6] it was 53%. This compound yielded an equilibrium dissociation constant (Kd) in assay [3] of over 40 µM.

Consider `Nc1ncc(-c2cncc(NS(=O)(=O)c3ccc4ccccc4c3)c2)cn1`, for which the Activity turned out to be 1% in assay [1]; 92% in assay [2]; 25% in assay [4]; 4.2% in assay [5]; 96% in assay [6]. Besides, the results for the dissociation constant Kd in assay [3] and in assay [7] were 0.23 µM and over 40 µM, respectively.

Take `Cc1nc(N)nc(C)c1-c1cncc(NS(=O)(=O)c2ccccc2)c1`: the results for the Activity in assay [1] and in assay [2] were 18% and 89%, respectively.

As for `Cc1nc(N)ncc1-c1cncc(NS(=O)(=O)c2ccccc2)c1`, the figures for the Activity in assay [1] and in assay [2] were 5.2% and 66%, respectively.

Turning to `Cc1ccc(S(=O)(=O)Nc2cncc(-c3cnc(N)nc3)c2)cc1[N+](=O)[O-]`, the Activity in assay [1] was 0.7%; in assay [2], 42%; in assay [4] it was 5.3%; in assay [5], 0.1%; in assay [6] it was 78%. Binding in assay [3] was characterised by a dissociation constant (Kd) of 0.25 µM.

For `CC(=O)Nc1ncc(-c2cncc(NS(=O)(=O)c3ccccc3)c2)cn1`, the values for the Activity in assay [1] and in assay [2] were 34% and 100%, respectively.

For the compound `CC(=O)Nc1cncc(-c2cnc(N)nc2)c1`, the Activity in assay [1] came to 69%; in assay [2], 97%; in assay [4], 98%; in assay [5] it was 65%; in assay [6] it was 79%. Besides, the Kd in assay [3] was over 20 µM.

Regarding `Nc1ncc(-c2cncc(NS(=O)(=O)c3ccc(F)cc3F)c2)cn1`, the Activity worked out at 0.7% in assay [1]; 22% in assay [2]; 7.2% in assay [4]; 4.7% in assay [5]; 56% in assay [6]. In assay [3], this compound yielded a dissociation constant Kd of 0.22 µM. For the same compound, in assay [8], the IC50 worked out at 8.5 µM.

For `Nc1ncc(-c2cncc(NS(=O)(=O)c3ccccc3)c2)cn1`, the Activity came to 1.4% in assay [1]; 60% in assay [2]; 24% in assay [4]; 4.2% in assay [5]; 74% in assay [6]. This compound also had a Kd in assay [3] of 0.36 µM. Besides, the IC50 in assay [8] was determined as 9.6 µM.

For the compound `CN(C)c1ncc(-c2cncc(NS(=O)(=O)c3ccccc3)c2)cn1`, the values for the Activity in assay [1] and in assay [2] were 66% and 100%, respectively.

Take `O=S(=O)(Nc1cncc(-c2cnc3[nH]ccc3c2)c1)c1ccccc1`: the Activity in assay [1] was found to be 4.9%; in assay [2], 56%.

For the compound `CNc1ncc(-c2cncc(NS(=O)(=O)c3ccccc3)c2)cn1`, the Activity in assay [1] worked out at 5.2%; in assay [2] it was 39%.

As for `COc1ccc(S(=O)(=O)Nc2cncc(-c3cnc(N)nc3)c2)cc1`, the Activity turned out to be 1.7% in assay [1]; 87% in assay [2]; 20% in assay [4]; 4.3% in assay [5]; 39% in assay [6]. In assay [3], this compound returned a dissociation constant Kd of 0.5 µM.

`Nc1ncc2cc(-c3cncc(NS(=O)(=O)c4ccccc4)c3)ccc2n1`: the Activity in assay [1] and in assay [2] was 0% throughout.

In the case of `CS(=O)(=O)Nc1cncc(-c2cnc(N)nc2)c1`, the Activity in assay [1] was determined as 28%; in assay [2] it was 62%; in assay [4] it was 43%; in assay [5], 38%; in assay [6], 67%. Moreover, the dissociation constant (Kd) in assay [3] came to 5.2 µM.

Regarding `Nc1ncc(-c2cncc(NS(=O)(=O)c3ccc([N+](=O)[O-])cc3)c2)cn1`, the Activity in assay [1] came out at 1.6%; in assay [2], 18%; in assay [4], 6.7%; in assay [5], 9.5%; in assay [6], 68%. In assay [3], this compound came in with a Kd of 0.55 µM.

For the compound `O=S(=O)(Nc1cncc(-c2cnc3nccn3c2)c1)c1ccccc1`, the Activity in assay [1] was determined as 39%; in assay [2], 95%.

With `Cc1ccc(S(=O)(=O)Nc2cncc(-c3cnc(N)nc3)c2)cc1`, the Activity in assay [1] came to 0.5%; in assay [2], 17%; in assay [4], 8.2%; in assay [5] it was 3.4%; in assay [6] it was 76%. In addition, the dissociation constant (Kd) in assay [3] was 0.1 µM. In assay [8], the concentration for half-maximal inhibition (IC50) was found to be 4.7 µM.

With `O=S(=O)(Nc1cncc(-c2cccnc2)c1)c1ccccc1`, the Activity in assay [1] was determined as 7.4%; in assay [2], 52%.

For the compound `Nc1ncc(-c2cncc(NS(=O)(=O)c3cccc(C(F)(F)F)c3)c2)cn1`, the Activity is 1.2% in assay [1]; 30% in assay [2]; 9.6% in assay [4]; 0.9% in assay [5]; 41% in assay [6]. In assay [3], this compound had an equilibrium dissociation constant (Kd) of 0.43 µM.

For the compound `O=S(=O)(Nc1cncc(-c2ccc3nccn3c2)c1)c1ccccc1`, the Activity is 0.6% in assay [1] and 4% in assay [2].

As a reminder, the Kd is the constant that tells how readily two partners part at equilibrium. As a reminder, the IC50 is the midpoint of a concentration-inhibition curve.
